Assays:
[1] = tested on: C5a induced human PMN chemotaxis; test: C5a induced chemotaxis of human PMNs (microchamber assay); format: cell-based; conditions: for inhibitory activity on C5a: compounds lacking the additional hydrogen bond acceptor group; for inhibition at 0.1 µM / inhibition at 0.01 µM: Homo sapiens, read-out: % inhibition C5a induced PMN migration; for inhibition at 0.1 µM: drug concentration: 10^−7 M (footnote a); for inhibition at 0.01 µM: drug concentration: 10^−8 M (footnote b)
Protocol: The compounds of the invention of formula (I) were evaluated in vitro for their ability to inhibit chemotaxis of polymorphonucleate leukocytes (hereinafter referred to as PMNs) and monocytes induced by the fractions of the complement C5a and C5a-desArg. For this purpose, to isolate the PMNs from heparinized human blood, taken from healthy adult volunteers, mononucleates were removed by means of sedimentation on dextran (according to the procedure disclosed by W. J. Ming et al., J. Immunol., 138, 1469, 1987) and red blood cells by a hypotonic solution. The cell vitality was calculated by exclusion with Trypan blue, whilst the ratio of the circulating polymorphonucleates was estimated on the cytocentrifugate after staining with Diff Quick.
Human recombinant fractions C5a and C5a-desArg (Sigma) were used as stimulating agents in the chemotaxis experiments, giving practically identical results.
The lyophilized C5a was dissolved in a volume of HBSS containing 0.2% bovin serum albumin BSA so thus to obtain a stock solution having a concentration of 10^−5 M to be diluted in HBSS to a concentration of 10^−9 M, for the chemotaxis assays.
In the chemotaxis experiments, the PMNs were incubated with the compounds of the invention of formula (I) for 15′ at 37° C. in an atmosphere containing 5% CO2. The chemotactic activity of the C5a was evaluated on human circulating polymorphonucleates (PMNs) resuspended in HBSS at a concentration of 1.5×10^6 PMNs per mL.
During the chemotaxis assay (according to W. Falket et al., J. Immunol. Methods, 33, 239, 1980) PVP-free filters with a porosity of 5 μm and microchambers suitable for replication were used.
The compounds of the invention in formula (I) were evaluated at a concentration ranging between 10^−7 and 10^−10 M; for this purpose they were added, at the same concentration, both to the lower pores and the upper pores of the microchamber. The wells in the lower part contain the solution of C5a or the simple carrier, those in the upper part contain the suspension of PMNs.
Inhibition of C5a-induced chemotactic activity by the individual compounds of the invention of formula (I) was evaluated by incubating the microchamber for the chemotaxis for 60 min at 37° C. in an atmosphere containing 5% CO2.
By way of example, the inhibition data of the chemotaxis of PMN (concentration range between 10^−7 and 10^−8 M) of some representative compounds of the invention are reported in Table 2.

[2] = tested on: CXCL8 induced human PMN chemotaxis; test: IL-8 (CXCL8) induced PMN chemotaxis; format: cell-based; conditions: drug concentration 10^−8M, Table 1
[3] = tested on: C5a induced human PMN chemotaxis; conditions: previously reported; cited from earlier work
[4] = tested on: C5a induced human PMN chemotaxis; test: C5a induced chemotaxis of human PMNs (microchamber assay); format: cell-based; conditions: for inhibitory activity on C5a induced PMN chemotaxis at high drug concentration: c=10^−6M; for C5a (10^−6M): drug concentration 10^−6M, PMN chemotaxis, Table 1, n.a. = not active

## CC(C)Cc1ccc([C@@H](C)C(N)=O)cc1 [(R)-2-(4-isobutylphenyl)propionamide, reference compound]
[1]
  inhibitory activity on C5a: do not exhibit any inhibitory activity
[2]
  IL-8 (10^−8M): 57 ± 12

## C[C@@H](C(N)=O)c1cccc(Nc2ccccc2Cl)c1 [Example 11, (R)-2-[3-(2-chlorophenylamino)phenyl]propionamide]
[1]
  inhibition at 0.1 µM: 42 ± 5%

## CC(C)c1cccc([C@@H](C)C(N)=O)c1 [(R)-2-(3-isopropylphenyl)propionamide, reference compound]
[1]
  inhibitory activity on C5a: do not exhibit any inhibitory activity
[2]
  IL-8 (10^−8M): 60 ± 5

## CC(=O)Nc1cccc(C(C)C(N)=O)c1 (stereo not drawn) [Example 18, 2-(3-acetylamino)phenyl propionamide]
[1]
  inhibition at 0.1 µM: 83 ± 2%

## C[C@@H](C(=O)NS(C)(=O)=O)c1cccc(C(=O)C2CCCC2)c1 [Example 20, N—[(R)-2-(3-cyclopentanecarbonylphenyl)propionyl]methanesulfonamide]
[1]
  inhibition at 0.1 µM: 22 ± 2%

## C[C@@H](C(=O)NS(C)(=O)=O)c1cccc(C(=O)c2ccccc2)c1 [N-[(R)-2-(3-benzoylphenyl)propionyl]methanesulfonamide]
[3]
  activity on the C5a induced PMN chemotaxis: negligible activity
[4]
  inhibitory activity on C5a induced PMN chemotaxis at high drug concentration: moderate inhibitory activity
  C5a (10^−6M): 20 ± 5
[2]
  IL-8 (10^−8M): 38 ± 5

## Cc1ccc(C(=O)c2cccc([C@@H](C)C(=O)NS(C)(=O)=O)c2)o1 [Example 22]
[1]
  inhibition at 0.01 µM: 53 ± 6%

## C[C@@H](C(N)=O)c1cccc(C(=O)Nc2ncccc2Cl)c1 [Example 9, 3-((R)-1-carbamoylethyl)-N-(3-chloropyridin-2-yl)benzamide]
[1]
  inhibition at 0.1 µM: 40 ± 2%

## C[C@@H](C(N)=O)c1cccc(-c2ccco2)c1 [Example 15]
[1]
  inhibition at 0.1 µM: 41 ± 7%

## COc1ccccc1Oc1cccc([C@@H](C)C(N)=O)c1 [Example 10, (R)-2-[3-(2-methoxyphenoxy)phenyl]propionamide]
[1]
  inhibition at 0.01 µM: 55 ± 6%

## C[C@@H](C(N)=O)c1cccc(Nc2ccccn2)c1 [Example 13, (R)-2-[3-(pyridin-2-ylamino)phenyl]propionamide]
[1]
  inhibition at 0.1 µM: 38 ± 3%

## CC(C)C(=O)c1cccc([C@@H](C)C(N)=O)c1 [Example 1, (R)-2-[3-(isobutyryl)phenyl]propionamide]
[1]
  inhibition at 0.1 µM: 50 ± 7%

## Cc1cccc(C)c1NC(=O)c1cccc([C@@H](C)C(N)=O)c1 [Example 8, 3-((R)-1-carbamoylethyl)-N-(2,6-dimethylphenyl)benzamide]
[1]
  inhibition at 0.1 µM: 65 ± 10%

## C[C@@H](C(=O)NS(C)(=O)=O)c1cccc(C(=O)c2ncco2)c1 [Example 25]
[1]
  inhibition at 0.1 µM: 38 ± 8%

## C[C@@H](C(N)=O)c1cccc(C(=O)c2nccs2)c1 [Example 5, (R)-2-[3-(thiazole-2-ylcarbonyl)phenyl]propionamide]
[1]
  inhibition at 0.01 µM: 31 ± 7%

## C[C@@H](C(N)=O)c1cccc(C(=O)Nc2c(Cl)cccc2Cl)c1 [Example 7, 3-((R)-1-carbamoylethyl)-N-(2,6-dichlorophenyl)benzamide]
[1]
  inhibition at 0.1 µM: 57 ± 8%

## CC(NC(=O)[C@H](C)c1cccc(C(=O)c2ccco2)c1)C(=O)O (stereo partly drawn) [Example 33, 2-{(R)-2-[3-(furan-2-carbonyl)phenyl]propionylamino}propionic acid]
[1]
  inhibition at 0.1 µM: 40 ± 5%

## C[C@@H](C(=O)Nc1nc(C(F)(F)F)cs1)c1cccc(C(=O)c2cc3ccccc3o2)c1 [Example 29, (R)-2-[3-(benzofuran-2-carbonyl)phenyl]-N-(4-trifluoromethyl-2H-thiazol-2-yl)propionamide]
[1]
  inhibition at 0.1 µM: 40 ± 12%

## C[C@@H](C(=O)NS(C)(=O)=O)c1cccc(C(=O)c2cccs2)c1 [Example 23]
[1]
  inhibition at 0.1 µM: 37 ± 11%

## C[C@@H](C(N)=O)c1cccc(C(=O)c2ccccc2)c1 [(R)-2-(3-benzoylphenyl)propionamide]
[3]
  activity on the C5a induced PMN chemotaxis: negligible activity
[4]
  inhibitory activity on C5a induced PMN chemotaxis at high drug concentration: moderate inhibitory activity
  C5a (10^−6M): 30 ± 2
[2]
  IL-8 (10^−8M): 37 ± 7

## C[C@@H](C(N)=O)c1cccc(S(=O)(=O)c2ccccc2)c1 [Example 17, (R)-2-(3-benzenesulfonylphenyl)propionamide]
[1]
  inhibition at 0.1 µM: 54 ± 7%

## CC(C(N)=O)c1cccc(NC(=O)c2ccccc2)c1 (stereo not drawn) [Example 19, 2-(3-benzoylamino)phenyl propionamide]
[1]
  inhibition at 0.1 µM: 34 ± 11%

## C[C@@H](C(=O)Nc1ccccn1)c1cccc(C(=O)C2CCCC2)c1 [Example 30, (R)-2-(3-cyclopentanecarbonylphenyl)-N-pyrid-2-ylpropionamide]
[1]
  inhibition at 0.01 µM: 51 ± 5%

## COc1ccccc1Nc1cccc([C@@H](C)C(N)=O)c1 [Example 12, (R)-2-[3-(2-methoxyphenylamino)phenyl]propionamide]
[1]
  inhibition at 0.1 µM: 60 ± 8%

## C[C@@H](C(=O)Nc1ccccn1)c1cccc(C(=O)c2ccco2)c1 [Example 26, (R)-2-[3-(furan-2-carbonyl)phenyl]-N-pyrid-2-yl propionamide]
[1]
  inhibition at 0.01 µM: 45 ± 9%

## C[C@@H](C(=O)NO)c1cccc(C(=O)c2ccco2)c1 [Example 31, (R)-2-[3-(furan-2-carbonyl)phenyl]-N-hydroxypropionamide]
[1]
  inhibition at 0.01 µM: 70 ± 5%

## C[C@@H](C(=O)NS(C)(=O)=O)c1cccc(C(=O)c2ccco2)c1 [Example 21]
[1]
  inhibition at 0.01 µM: 61 ± 15%

## C[C@@H](C(=O)Nc1nc(C(F)(F)F)cs1)c1cccc(C(=O)c2ccco2)c1 [Example 28, (R)-2-[3-(furan-2-carbonyl)phenyl]-N-(4-trifluoromethyl-2H-thiazol-2-yl)propionamide]
[1]
  inhibition at 0.01 µM: 49 ± 9%

## CC(C)Cc1ccc([C@@H](C)C(=O)NS(C)(=O)=O)cc1 [N-[(R)-2-(4-isobutylphenyl)propionyl]methanesulfonamide, reference compound]
[1]
  inhibitory activity on C5a: do not exhibit any inhibitory activity
[2]
  IL-8 (10^−8M): 65 ± 5

## C[C@@H](C(=O)NCC(=O)O)c1cccc(C(=O)c2ccco2)c1 [Example 34]
[1]
  inhibition at 0.1 µM: 51 ± 7%

## C[C@@H](C(=O)NS(C)(=O)=O)c1cccc(C(=O)c2cc3ccccc3o2)c1 [Example 24]
[1]; drug concentration not marked
  % inhibition C5a induced PMN migration: 53 ± 5%

## C[C@@H](C(N)=O)c1ccc2c(c1)NC(=O)CC2 [Example 16, (R)-2-(oxo-1,2,3,4-tetrahydroquinolin-7-yl)propionamide]
[1]
  inhibition at 0.01 µM: 45 ± 10%

## C[C@@H](C(N)=O)c1cccc(C(=O)c2ncco2)c1 [Example 6, (R)-2-[3-(1,3-oxazol-2-ylcarbonyl)phenyl]propionamide]
[1]
  inhibition at 0.01 µM: 26 ± 6%

## C[C@@H](C(=O)Nc1nccs1)c1cccc(C(=O)c2ccco2)c1 [Example 27, (R)-2-[3-(furan-2-carbonyl)phenyl]-N-(2H-thiazol-2-yl)propionamide]
[1]
  inhibition at 0.01 µM: 60 ± 5%

## C[C@@H](C(=O)NO)c1cccc(C(=O)c2nccs2)c1 [Example 32, (R)-2-[3-(thiazole-2-carbonyl)phenyl]-N-hydroxypropionamide]
[1]
  inhibition at 0.01 µM: 30 ± 2%

## C[C@@H](C(N)=O)c1cccc(-c2ncco2)c1 [Example 14]
[1]
  inhibition at 0.1 µM: 63 ± 9%

## C[C@@H](C(N)=O)c1cccc(C(=O)c2ccco2)c1 [Example 3]
[1]
  inhibition at 0.1 µM: 65 ± 6%

## C[C@@H](C(N)=O)c1cccc(C(=O)C2CCCC2)c1 [Example 2, (R)-2-[3-(cyclopentanecarbonyl)phenyl]propionamide]
[1]
  inhibition at 0.1 µM: 59 ± 16%

## C[C@@H](C(N)=O)c1cccc(C(=O)c2cc3ccccc3o2)c1 [Example 4, (R)-2-[3-(2-benzofuran-2-carbonyl)phenyl]propionamide]
[1]
  inhibition at 0.01 µM: 55 ± 7%
